Tested on: HepG2 liver cancer cells
Assay: Cytotoxicity by released nanoparticles containing SRF and BSA: cell viability, CCK-8 kit
Format: cell-based
Conditions: Homo sapiens, 50 μM SRF dissolved in DMSO, 3 hours incubation at 37° C., then 3 days in fresh medium, relative to DMSO-treated cells
Procedure: Liposomes that were sonicated were incubated with cells to confirm the cell viability.
The liposomes of Example 4 were sonicated at a temperature of 25° C. for 16 minutes by using a pool-type sonicator (Branson).
The sonicated liposomes, unsonicated liposomes, 50 μM of SRF (Santa Cruz Biotechnology, Inc.) dissolved in dimethyl sulfoxide (DMSO) (Aldrich), or DMSO itself was added to about 5,000 HepG2 liver cancer cells, followed by being incubated at a temperature of 37° C. for 3 hours. Here, the medium used in the incubation was exchanged with fresh medium. The cells were incubated for at a temperature of 37° C. for 3 days, and number of the cells was counted by using a CCK-8 kit (Dojindo). The cell viability was relatively calculated with respect to the number of the cells that were treated with DMSO, and the results were shown in FIG. 7 (1: DMSO, 2: SRF dissolved in DMSO, 3: liposomes that are not sonicated, 4: liposomes that are sonicated for 16 minutes).

`CNC(=O)c1cc(Oc2ccc(NC(=O)Nc3ccc(Cl)c(C(F)(F)F)c3)cc2)ccn1` [SRF, sorafenib] showed a viability at 50 µM of about 36%.

— patent publication US10071084B2, “Nanoparticle, method of preparating the same, and use of the nanoparticle” (Samsung Electronics Co., Ltd., priority 2013, dated 2018)
